By EC50 is commonly meant the concentration that produces a half-maximal response. Higher therefore signals a less potent agent.

Structures are written as SMILES. In brackets after ≈: the same amount, converted by molar mass. Where a name gives a salt, the structure may show the parent alone. Read-outs that look alike come from different tables or passages of the source. Some results are limits rather than exact numbers.

These results are taken from patent publication US5519016A, “Aryl group- or aromatic heterocyclic group-substituted aminoquinolone derivatives and anti-HIV agent” (priority 1992, dated 1996).

In data set [1] the test system is HIV. Kind of data set: microbe, parasite or virus in culture. It counts as cell-based. To be noted: for S.I. (selective index, CC50 /EC50): CC50 = 50% growth inhibition of non-infected cells, 7200 min; for EC50: Human immunodeficiency virus 1, MT4, 120 h, 50% CPE inhibition in HIV infected MT-4 cells, 5 days, 37° C. The source says: Exponentially growing MT-4 cells were centrifuged, and the pellets were resuspended in RPMI-1640 medium containing 10% fetal serum (serum medium). Portions of the cell suspension were either inoculated with HIV, or left uninfected. Serum medium was then further added to the suspensions, which were then washed and centrifuged. The resulting pellets were then suspended in serum medium to a concentration of 4×10^5 cells/mi. Preparations of the test compound (in serum medium) were […] in a stepwise manner, and 100 μl of each of the solutions were placed in separated wells of a 96-well plastic microtitre plate. 100 μl of each of the cell suspensions (infected and non-infected) were then added to the wells, so that each dilution of each of the test compounds was tested against both infected and noninfected cells. Blanks (not added either of the cells) were also prepared. The preparations were then cultured by standing the plate at 37° C. for 5 days in the presence of 5 % carbon dioxide gas.
At the end of this time, living cells were assayed for CPE inhibitory activity by the spectrophotometric assay of the blue formazan produced by the reduction of MTT [3-(4,5-dimethylthiazol-2-yl) -2,5-diphenyl-tetrazolium bromide]which was added to the preparations.
CPE inhibitory activity was defined as 100% in non-infected cells to which no test compounds had been added, while CPE inhibitory activity was defined as 0% in infected cells to which test compounds had not been added.

For data set [2], the system named is HIV. The conditions noted are these: literature / WO-A-90-13542; cited from earlier work.

Turning to `O=C(O)c1cn(C2CC2)c2cc(N3CCNCC3)c(F)cc2c1=O` [Ciprofloxacin, reference compound], the “anti-HIV activity (in words)” value in the data set on HIV [1] is reported as “little or no anti-HIV activity”. Further, in the data set on HIV [2], the “anti-HIV activity (reported)” value is given as “anti-HIV activity”.
Take `C[C@H]1COc2c(N3CCN(C)CC3)c(F)cc3c(=O)c(C(=O)O)cn1c23` [DR-3355, reference compound]: the “anti-HIV activity (in words)” value in the data set with HIV [1] (Pauwel method) was “have failed”. The “anti-HIV activity (reported)” value in the data set on HIV [2] is “Anti-HIV activity has recently been reported”.
For `CN1CCN(c2cc3c(cc2F)c(=O)c(C(=O)O)cn3-c2ccc(F)cc2)CC1` [Difloxacin, reference compound], the “anti-HIV activity (in words)” value in the data set with HIV [1] (Pauwel method) was “little or no anti-HIV activity”. Moreover, the “anti-HIV activity (reported)” value with HIV [2] was “anti-HIV activity”.
Turning to `CCn1cc(C(=O)O)c(=O)c2cc(F)c(N3CCNCC3)nc21` [Enoxacin, reference compound], the “anti-HIV activity (in words)” value in the data set with HIV [1] (Pauwel method) is “little or no anti-HIV activity”. Moreover, the “anti-HIV activity (reported)” value in the data set on HIV [2] is reported as “anti-HIV activity”.
For the compound `COc1ccccc1N1CCN(c2c(F)cc3c(=O)c(C(=O)O)cn(C4CC4)c3c2OC(F)F)CC1` [Example 1, 1-cyclopropyl-6-fluoro-8-difluoromethoxy-7-[4-(2-methoxyphenyl)piperazin-1-yl]-1,4-dihydro-4-oxoquinoline-3-carboxylic acid.hydrochloride], in the data set on HIV [1], the “S.I. (selective index, CC50 /EC50)” value worked out at 400 and the 50% effective concentration (EC50) was found to be 0.015 µg/mL.
For the compound `O=C(O)c1cn(C2CC2)c2c(OC(F)F)c(N3CCN(c4ccccc4)CC3)c(F)cc2c1=O` [Example 2, 1-cyclopropyl-6-fluoro-8-difluoromethoxy-7-(4-phenylpiperazin-1-yl)-1,4-dihydro-4-oxoquinoline-3-carboxylic acid], in the data set with HIV [1], the “S.I. (selective index, CC50 /EC50)” value worked out at 100 and it took 0.03 µg/mL (≈ 0.0634 µM) to reach a half-maximal effect (EC50).
For `O=C(O)c1cn(C2CC2)c2c(OC(F)F)c(N3CCN(c4ccc(F)cc4)CC3)c(F)cc2c1=O` [Example 6], in that order: 34 and 0.02 µg/mL (≈ 0.0407 µM).
Regarding `COc1cccc(N2CCN(c3c(F)cc4c(=O)c(C(=O)O)cn(C5CC5)c4c3OC(F)F)CC2)c1` [Example 7], in the data set on HIV [1], the “S.I. (selective index, CC50 /EC50)” value was 113 and the midpoint of the response, the EC50, lay at 0.22 µg/mL (≈ 0.437 µM).
As to `COc1ccc(N2CCN(c3c(F)cc4c(=O)c(C(=O)O)cn(C5CC5)c4c3OC(F)F)CC2)cc1` [Example 8, 1-cyclopropyl-6-fluoro-8-difluoromethoxy-7-[4-(4-methoxyphenyl)piperazin-1-yl]-1,4-dihydro-4-oxoquinoline-3carboxylic acid], in the data set with HIV [1], the “S.I. (selective index, CC50 /EC50)” value is on record as 500 and the EC50 worked out at 0.1 µg/mL (≈ 0.199 µM).
On the same counts, the results for `O=C(O)c1cn(C2CC2)c2c(OC(F)F)c(N3CCN(c4ncccc4[N+](=O)[O-])CC3)c(F)cc2c1=O` [Example 17] are 250 and 0.5 µg/mL (≈ 0.963 µM).
On the same counts, the results for `O=C(O)c1cn(C2CC2)c2c(OC(F)F)c(N3CCN(c4ncccn4)CC3)c(F)cc2c1=O` [Example 18, 1-cyclopropyl-6-fluoro-8-difluoromethoxy-7-[4-(2-pyrimidinyl)piperazin-1-yl]-1,4-dihydro-4-oxoquinoline-3-carboxylic acid] are 121 and 0.07 µg/mL (≈ 0.147 µM).
As to `O=C(O)c1cn(C2CC2)c2c(OC(F)F)c(N3CCN(c4ncc(Cl)cn4)CC3)c(F)cc2c1=O` [Example 19], in the data set on HIV [1], the “S.I. (selective index, CC50 /EC50)” value is listed as 57 and the EC50 was determined as 0.07 µg/mL (≈ 0.137 µM).
On the same counts, the results for `O=C(O)c1cn(C2CC2)c2c(OC(F)F)c(N3CCN(c4nc5ccccc5o4)CC3)c(F)cc2c1=O` [Example 21] are 16 and 0.037 µg/mL (≈ 0.0719 µM).
For `COc1ccccc1N1CCN(c2c(F)cc3c(=O)c(C(=O)O)cn(C)c3c2OC(F)F)CC1` [Example 23, 6-fluoro-8-difluoromethoxy-1-methyl-7-[4-(2-methoxyphenyl)piperazin-1-yl]-1,4-dihydro-4-oxoquinoline-3-carboxylic acid], in that order: 309 and 0.021 µg/mL (≈ 0.044 µM).
On to `Cn1cc(C(=O)O)c(=O)c2cc(F)c(N3CCN(c4ncccn4)CC3)c(OC(F)F)c21` [Example 24, 6-fluoro-8-difluoromethoxy-1-methyl-7-[4-(2-pyrimidinyl)piperazin-1-yl]-1,4-dihydro-4-oxoquinoline-3-carboxylic acid], for which, in the data set with HIV [1], the “S.I. (selective index, CC50 /EC50)” value came to 257 and the EC50 was determined as 0.07 µg/mL (≈ 0.156 µM).
On the same counts, the results for `COc1ccccc1N1CCN(c2c(F)c(N)c3c(=O)c(C(=O)O)cn(C(C)C)c3c2OC(F)F)CC1` [Example 29] are 22 and 0.05 µg/mL (≈ 0.0961 µM).
On the same counts, the results for `CCn1cc(C(=O)O)c(=O)c2cc(F)c(N3CCN(c4cnccn4)CC3)c(OC(F)F)c21` [Example 37] are over 109 and 0.23 µg/mL (≈ 0.496 µM).
On the same counts, the results for `COc1ccccc1N1CCN(c2c(F)cc3c(=O)c(C(=O)O)cn(CCF)c3c2OC(F)F)CC1` [Example 38] are 79 and 0.07 µg/mL (≈ 0.137 µM).
Take `COc1ccccc1N1CCN(c2c(F)cc3c(=O)c(C(=O)O)cn(CCOC(C)=O)c3c2OC(F)F)CC1` [Example 46, 1-(2-acetoxyethyl)-6-fluoro-8-difluoromethoxy-7-[4-(2-methoxyphenyl)piperazin-1-yl]-1,4-dihydro-4-oxoquinoline-3-carboxylic acid]: in the data set on HIV [1], the “S.I. (selective index, CC50 /EC50)” value was 155 and the EC50 stood at 0.06 µg/mL (≈ 0.109 µM).
On the same counts, the results for `CNn1cc(C(=O)O)c(=O)c2cc(F)c(N3CCN(c4ncccn4)CC3)c(OC(F)F)c21` [Example 53] are over 83 and 0.3 µg/mL (≈ 0.646 µM).
On the same counts, the results for `CCn1cc(C(=O)O)c(=O)c2cc(F)c(N3CCN(c4ccccc4OC)CC3)c(OC(F)F)c21` [Example 63, 1-ethyl-6-fluoro-8-difluoromethoxy-7-[4-(2-methoxyphenyl)piperazin-1-yl]-1,4-dihydro-4-oxoquinoline-3carboxylic acid] are 1000 and 0.01 µg/mL (≈ 0.0203 µM).
On the same counts, the results for `CCn1cc(C(=O)O)c(=O)c2cc(F)c(N3CCN(c4ncccn4)CC3)c(OC(F)F)c21` [Example 67, 1-ethyl-6-fluoro-8-difluoromethoxy-7-[4-(2-pyrimidinyl)piperazin-1-yl]-1,4-dihydro-4-oxoquinoline-3-carboxylic acid] are over 500 and 0.08 µg/mL (≈ 0.173 µM).
In the case of `COc1ccccc1N1CCN(c2c(F)cc3c(=O)c(C(=O)O)cn(CCF)c3c2OC)CC1` [Example 70], in the data set with HIV [1], the “S.I. (selective index, CC50 /EC50)” value is on record as 20 and the EC50 was determined as 0.5 µg/mL (≈ 1.06 µM).
For `CC1COc2c(N3CCN(c4ccccn4)CC3)c(F)cc3c(=O)c(C(=O)O)cn1c23` (stereo not shown) [Example 85], in that order: 17 and 1 µg/mL (≈ 2.36 µM).
`O=C(O)c1cn2c3c(c(N4CCN(c5ncccn5)CC4)c(F)cc3c1=O)OCC2CF` (stereo not shown) [Example 87, 9-fluoro-3-fluoromethyl-10-[4-(2-pyrimidinyl)piperazin-1yl]-2,3-dihydro-7-oxo-7H -pyrido[1,2,3-de][1,4]benzoxazine-6-carboxylic acid]: in the data set on HIV [1], the “S.I. (selective index, CC50 /EC50)” value is over 512 and the 50% effective concentration (EC50) is 0.074 µg/mL (≈ 0.167 µM).
`CCn1cc(C(=O)O)c(=O)c2cc(F)c(N3CCN(c4ncccn4)CC3)nc21` [Example 92]: in the data set with HIV [1], the “S.I. (selective index, CC50 /EC50)” value was determined as 31 and the response was half-maximal at 0.8 µg/mL (≈ 2.01 µM) (EC50).
For `CCn1cc(C(=O)O)c(=O)c2cc(F)c(N3CCN(c4ncccn4)C(C)C3)c(OC(F)F)c21` (stereo not shown) [Example 94, 1-ethyl-6-fluoro-8-difluoromethoxy-7-[3-methyl-4-(2-pyrimidinyl)piperazin-1-yl]-1,4-dihydro-4-oxoquinoline-3-carboxylic acid], in that order: 21 and 0.5 µg/mL (≈ 1.05 µM).
On the same counts, the results for `CC(C)(C)n1cc(C(=O)O)c(=O)c2cc(F)c(N3CCN(c4ncccn4)CC3)cc21` [Example 95] are over 62 and 0.4 µg/mL (≈ 0.94 µM).
For `CCn1cc(C(=O)O)c(=O)c2ccc(N3CCN(c4ncccn4)CC3)c(OC(F)F)c21` [Example 99, 1-ethyl-8-difluoromethoxy-7-[4-(2-pyrimidinyl)piperazin-1-yl]-1,4-dihydro-4-oxoquinoline-3-carboxylic acid], in that order: over 25 and 1 µg/mL (≈ 2.25 µM).
In the case of `CC1Sc2c(C(=O)O)c(=O)c3cc(F)c(N4CCN(c5ncccn5)CC4)cc3n21` (stereo not shown) [Example 100, 6-fluoro-1-methyl-4-oxo-7-[4-(2-pyrimidinyl)piperazin-1-yl]-1H, 4H-[1,3]thiazeto[3,2-a]quinoline-3-carboxylic acid], in the data set on HIV [1], the “S.I. (selective index, CC50 /EC50)” value worked out at 9 and the response was half-maximal at 0.4 µg/mL (≈ 0.936 µM) (EC50).
With `CCn1cc(C(=O)O)c(=O)c2cc(F)c(N3CCNC(C)C3)c(F)c21` (stereo not shown) [Lomefloxacin, reference compound], the “anti-HIV activity (in words)” value with HIV [1] (Pauwel method) is listed as “little or no anti-HIV activity”. Moreover, the “anti-HIV activity (reported)” value in the data set with HIV [2] was “anti-HIV activity”.
In the case of `CCn1cc(C(=O)O)c(=O)c2cc(F)c(N3CCNCC3)cc21` [Norfloxacin, reference compound], the “anti-HIV activity (in words)” value with HIV [1] (Pauwel method) is reported as “little or no anti-HIV activity”. The “anti-HIV activity (reported)” value with HIV [2] is “anti-HIV activity”.
